We go through 33 compounds from the supplement of paper PMC11003180.

What all share (assay): drug sensitivity score (DSS) from 5-dose viability curve (DSS (area-based score, 0 = no response)); higher = more sensitive (stronger viability inhibition); extreme values may be limits of the assay
The subject of experiment [1] is MDCK wild-type + doxycycline. Conditions: doxycycline: 10 ng/mL; 72 h. Summed up: (§1)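 Pre-spotted 384-well plates held 528 oncology drugs, each at five doses from 1 to 10,000 nM. Parental and doxycycline-inducible MDCK cells, exposed beforehand to 10 ng/mL doxycycline in the medium, were added at 2000 cells/well and incubated 72 h at 37 °C. Viability came from CellTiter-Glo luminescence normalized per plate to vehicle and positive controls, and the Breeze pipeline fitted dose-response curves to give drug sensitivity scores.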

Experiment [2] concerns MDCK p60AmotL2-inducible + doxycycline (p60AmotL2 expressing). Conditions: doxycycline: 10 ng/mL; 72 h. Put shortly: as §1
For experiment [3], the system named is MDCK wild-type - doxycycline. The settings on record: doxycycline: none; 72 h. Put shortly: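 For 72 h at 37 °C, parental MDCK cells (no doxycycline, 2000 cells/well) were incubated on 384-well plates pre-spotted with 528 oncology drugs at five doses from 1 to 10,000 nM. CellTiter-Glo luminescence served as the viability readout, scaled per plate between vehicle and positive controls. The Breeze pipeline then fitted dose-response curves to yield drug sensitivity scores.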

Structures are written as SMILES.

Turning to `CC(C)(C)c1cc(NC(=O)Nc2ccc(Oc3ccnc4[nH]c(=O)cnc34)cc2F)n(-c2ccccc2)n1`, the drug sensitivity score was determined as 5.1 in experiment [1], 7 in experiment [2] and 4.9 in experiment [3].
For `CC(C)Oc1ccc(C(=O)N[C@H](CNC(=O)CN(C)C)Cc2ccc(-c3cn4cccc([C@H](C)O)c4n3)cc2)cc1Cl`, in that order: 12.8, 15.8 and 10.7.
As for `CCc1cncnc1N1CCN(Cc2nc3ccc(C(F)(F)F)cc3[nH]2)CC1`, the drug sensitivity score in experiment [1], in experiment [2] and in experiment [3] was 0 throughout.
For `CCn1c(-c2nonc2N)nc2c(C#CC(C)(C)O)ncc(OC[C@H]3CCCNC3)c21`, the drug sensitivity score in experiment [1] was determined as 0; in experiment [2] it was 0.2; in experiment [3], 0.
As to `CCn1c(-c2nonc2N)nc2cnc(Oc3cccc(NC(=O)c4ccc(OCCN5CCOCC5)cc4)c3)cc21`, the drug sensitivity score in experiment [1] was 2.6; in experiment [2] it was 4; in experiment [3], 0.8.
For `CCn1cc(-c2ccnc3[nH]c(-c4cccc(CN(C)C)c4)cc23)c(-c2ccc(NC(=O)N(C)C)cc2)n1`, in that order: 1.9, 7.1 and 0.4.
For the compound `CN(c1ncccc1CNc1nc(Nc2ccc3c(c2)CC(=O)N3)ncc1C(F)(F)F)S(C)(=O)=O`, the drug sensitivity score worked out at 5.8 in experiment [1], 6 in experiment [2] and 4.4 in experiment [3].
For `CNC(=O)c1ccccc1Nc1nc(Nc2ccc3c(c2OC)CCC[C@H](N2CCN(CCO)CC2)C3)ncc1Cl`, in that order: 6.2, 8.8 and 6.8.
`CNc1nc(-c2ccc3c(N)n[nH]c3c2)cc(N2C[C@@H](C(=O)NC3CCCCC3)CC[C@H]2C)n1`: the drug sensitivity score in experiment [1], in experiment [2] and in experiment [3] was 0 each time.
With `CNc1ncc2cc(-c3cc(NC(=O)NCCC(C)(C)C)c(F)cc3C)c(C)nc2n1`, the drug sensitivity score in experiment [1] stood at 5.2; in experiment [2], 9; in experiment [3] it was 2.8.
As to `CONC(=O)c1ccccc1Nc1cc(Nc2cc(C)nn2C(C)C)ncc1Cl`, the drug sensitivity score in experiment [1] came out at 0; in experiment [2] it was 1.2; in experiment [3], 0.
Turning to `CO[C@@H](C)Cn1c(=O)n(C)c2cnc3ccc(-c4cncc(C(C)(C)O)c4)cc3c21`, the drug sensitivity score in experiment [1] was found to be 9.1; in experiment [2], 12.8; in experiment [3] it was 8.2.
In the case of `COc1cc2ncnc(Oc3cccc(NC(=O)Nc4cc(C(C)(C)C(F)(F)F)on4)c3)c2cc1OC`, the drug sensitivity score in experiment [1], in experiment [2] and in experiment [3] was 0 throughout.
With `COc1ccc(Cn2ccc3ccc(C(=O)NO)cc32)cc1`, the drug sensitivity score in experiment [1] worked out at 3.1; in experiment [2], 2.1; in experiment [3], 0.
For `COc1ccc2[nH]cc(/C=C3\C(=O)Nc4ccc(NC(=O)CCN5CCCCC5)cc43)c2c1`, in that order: 7.3, 9.4 and 6.
For the compound `C[C@@H](Oc1cc(-n2cnc3ccc(CN4CCN(C)CC4)cc32)sc1C(N)=O)c1ccccc1C(F)(F)F`, the drug sensitivity score in experiment [1] was determined as 35.1; in experiment [2], 32.1; in experiment [3] it was 29.5.
The like results for `C[C@@H](Oc1ccc2[nH]nc(/C=C/c3cnn(CCO)c3)c2c1)c1c(Cl)cncc1Cl` were, in that order, 7.2, 9.3 and 7.1.
Consider `C[C@@H]1CN(CC(=O)Nc2ccc3c(c2)Cc2cccc(-c4cc(=O)cc(N5CCOCC5)o4)c2S3)C[C@H](C)O1`, for which the values for the drug sensitivity score in experiment [1], in experiment [2] and in experiment [3] were 2, 2.4 and 2.2, respectively.
Turning to `C[C@H]1Oc2cc(cnc2N)-c2c(nn(C)c2C#N)CN(C)C(=O)c2ccc(F)cc21`, the results for the drug sensitivity score in experiment [1], in experiment [2] and in experiment [3] were 0, 2.1 and 0.1, respectively.
With `Cc1c(Cn2c(C)nc3c(C(=O)O)cc(N4CCOCC4)cc32)cccc1C(F)(F)F`, the drug sensitivity score in experiment [1], in experiment [2] and in experiment [3] was 0 in each case.
With `Cc1cccc(CC(=O)N2CCc3c2ccc(-c2cn(C)c4ncnc(N)c24)c3F)n1`, the drug sensitivity score in experiment [1], in experiment [2] and in experiment [3] was 0 each time.
For `Cc1nc(Nc2n[nH]c3c2CN(C(=O)N[C@H](CN(C)C)c2ccccc2)C3(C)C)c2sccc2n1`, the drug sensitivity score came out at 18 in experiment [1], 22.1 in experiment [2] and 12.4 in experiment [3].
`Cc1ncc(Cl)cc1NCc1ccc(C(=O)N[C@@H](CC2CCCC2)C(=O)NC2CC2)s1`: the drug sensitivity score in experiment [1], in experiment [2] and in experiment [3] was 0 each time.
On to `Cn1cc(-c2ccc(F)c(C(F)(F)F)c2)nc1C1CCN(c2ncnc3[nH]ncc23)CC1`, for which the drug sensitivity score in experiment [1] worked out at 0; in experiment [2], 3; in experiment [3], 0.
Consider `Cn1cc(C2=Nc3cc(NC(=O)C(N)C4CCCCC4)cc4c3C2=CNNC4=O)cn1` (centres undefined), for which the drug sensitivity score was found to be 0 in experiment [1], 1.1 in experiment [2] and 0 in experiment [3].
Consider `NCC(=O)Nc1ccc(-n2nc(C(F)(F)F)cc2-c2ccc3c(ccc4ccccc43)c2)cc1`, for which the drug sensitivity score in experiment [1], in experiment [2] and in experiment [3] was 0 throughout.
Consider `Nc1ncnc2c1c(COc1cccc(Cl)c1)nn2C1CCOCC1`, for which the drug sensitivity score in experiment [1] turned out to be 0; in experiment [2] it was 0.5; in experiment [3], 0.
In the case of `O=C(NC[C@H](O)CN1CCc2ccccc2C1)c1cc(NC2COC2)ncn1`, the drug sensitivity score came to 0 in experiment [1], 0.2 in experiment [2] and 0 in experiment [3].
As to `O=C(NCc1ccncc1)C12CC3CC(C1)CC(c1ccc(Cl)cc1)(C3)C2`, the drug sensitivity score was found to be 4.3 in experiment [1], 6.4 in experiment [2] and 2.4 in experiment [3].
For `O=C(NOC[C@H](O)CO)c1ccc(F)c(F)c1Nc1ccc(I)cc1F`, in that order: 3.9, 11.9 and 2.3.
Turning to `O=C(O)c1ccc(-c2c[nH]c3ncc(-c4ccccc4)cc23)cc1C1CCCC1`, the values for the drug sensitivity score in experiment [1], in experiment [2] and in experiment [3] were 1, 0.8 and 0, respectively.
Turning to `O=C(O)c1ccc(CN2CCC(CN[C@@H]3C[C@H]3c3ccccc3)CC2)cc1`, the drug sensitivity score in experiment [1], in experiment [2] and in experiment [3] was 0 in each case.
For `O=C1Cc2cc(C(=O)NC3C[C@H]4CC[C@@H](C3)N4S(=O)(=O)CC3CCN(CCCC(F)(F)F)CC3)c(Cl)cc2N1` (some centres undefined), the drug sensitivity score in experiment [1], in experiment [2] and in experiment [3] was 0 each time.
